Measurements taken from PMC8873228, “In-depth comparison of the metabolic and pharmacokinetic behaviour of the structurally related synthetic cannabinoids AMB-FUBINACA and AMB-CHMICA in rats” (Communications Biology, 2022).
Entries after “also recorded” stand apart in the source; their conditions may differ. Where two headings read alike, the source gives them in different places.

Legend:
[1] = Quantification of parent compounds and O-demethyl metabolites in rat brain, liver, kidney, serum and urine by UHPLC-HRMS after intraperitoneal injection; assay type: in vivo, male Sprague-Dawley rats; conditions: 1 mg/kg i.p.; for concentration at 30 min: 30 min after injection
Method: 8 male Sprague-Dawley rats (8 weeks old, weighing between 385 and 425 g) were used as animal models (Janvier Labs, Le Genest-Saint-Isle, France). Animals were housed individually in polypropylene plastic cages under controlled temperature (24 ± 2 °C) and lighting conditions (12 h:12 h; lights ON at 8 AM), with ad libitum access to food and water. Before SCRA injection, animals were handled and habituated to the experimental room for 1 week. All the experiments were approved by the Committee of Ethics and Animal Experimentation of Universitat Jaume I (2019/VSC/PEA/048) and treated throughout according to the European Union Council Directive of June 3rd, 2010 (6106/1/10 REV1).
SCRAs were dosed intraperitoneally at 1 mg/kg. This dose was selected based on similar studies reported in literature. The solution used for injection was prepared at 1 mg/mL in physiological saline solution containing 5% ethanol. Between 385 and 425 µL of that solution were injected depending on animal weight. Blood (serum), liver, brain, and kidney samples were dissected 15, 30, and 180 min after injection (previously anesthetised with CO2 and decapitated immediately). Blood was collected mainly from carotid arteries and jugular veins and kept at room temperature for 30 min to elicit coagulation. Then, blood was centrifuged 10 min at 2000 rcf at 4 °C in order to separate serum from sedimented clot. Liver, kidney, and brain were rapidly dissected and snap-freezing in liquid nitrogen. One animal was used for each dissection time. Additional serum, liver, brain, and kidney samples were obtained from an animal 48 h after being SCRA-dosed, and used as control. Urine samples were collected at 30, 60, 90, 120, 180, 240, 300, and 360 min, together with an additional sample at 24 h (composite urine sample between 360 min and 24 h, collected from animal dissected at 48 h). Urine samples were obtained from the bottom of the cage at the indicated time. Additionally, urine sample collected from one of the animals prior to injection was used as control. Samples were snap-frozen in liquid nitrogen after collection, and preserved at −23 °C until analysis.
Solid samples (brain, liver, and kidney) were crushed with dry ice using an electric grinder. 0.1 g were accurately weighed (±0.1 mg) in 1.5 mL polypropylene tubes, and 0.3 mL of acetonitrile acidified with 1% of formic acid were added for extraction. After that, samples were sonicated for 5 min, followed by 30 min of vortex agitation. Samples were then frozen for 30 min in order to increase protein removal. Finally, they were centrifuged at 12,500 rfc during 15 min, and the supernatant was 10-fold diluted with ultrapure water for UHPLC-HRMS analysis.
Similarly to solid samples, samples were frozen for 30 min, centrifuged at 12,500 rfc for 15 min, and the supernatant 10-fold diluted with ultrapure water for UHPLC-HRMS analysis.
For parent compounds and O-demethyl metabolites estimated quantification, a calibration line in solvent from 2.5 to 250 ng/mL was included in each batch analysis, as well as different quality control samples (QCs) prepared with blank extracts and spiked at 200 ng/mL for evaluating matrix effect and apply a correction factor.
Samples were analysed using an Acquity ultra-performance liquid chromatography (UPLC) system (Waters Corp, Mildford, MA, USA) coupled to a Xevo G2 QTOF (Waters Corp, Manchester, UK) mass spectrometer with quadrupole time-of-flight (QTOF) hybrid mass analyser.
Chromatographic separation was performed using a Cortecs T3 100 ×2.1 mm, 1.6 µm particle size analytical column (Waters Corp, Wexford, Ireland), maintained at 40 °C. […] Injection volume was 50 µL.

[2] = system: pooled human hepatocytes; conditions: AMB-FUBINACA incubated with pooled human hepatocytes; cited from earlier work
[3] = 15 min after injection, one sample, estimated concentration, 1 mg/kg
[4] = male, Sprague-Dawley, brain, ip, 1 mg/kg, 15 min after injection, one sample, estimated concentration, read-out: Brain concentration
[5] = male, Sprague-Dawley, brain, ip, 1 mg/kg, one sample, estimated concentration, read-out: Brain concentration
[6] = male, Sprague-Dawley, brain/serum, ip, read-out: Brain/serum ratio, tissue (ng/g)/serum (ng/mL)
[7] = male, Sprague-Dawley, kidney, ip, 1 mg/kg, 15 min after injection, one sample, estimated concentration, read-out: Kidney concentration
[8] = male, Sprague-Dawley, kidney, ip, 1 mg/kg, one sample, estimated concentration, read-out: Kidney concentration
[9] = male, Sprague-Dawley, kidney/serum, ip, read-out: Kidney/serum ratio, tissue (ng/g)/serum (ng/mL)
[10] = male, Sprague-Dawley, liver, ip, 1 mg/kg, 15 min after injection, one sample, estimated concentration, read-out: Liver concentration
[11] = male, Sprague-Dawley, liver, ip, 1 mg/kg, one sample, estimated concentration, read-out: Liver concentration
[12] = male, Sprague-Dawley, liver, ip, 1 mg/kg, 180 min after injection, one sample, estimated concentration, read-out: Liver concentration
[13] = male, Sprague-Dawley, liver/serum, ip, read-out: Liver/serum ratio, tissue (ng/g)/serum (ng/mL)
[14] = male, Sprague-Dawley, liver/serum, ip, 180 min, read-out: Liver/serum ratio, tissue (ng/g)/serum (ng/mL)
[15] = male, Sprague-Dawley, serum, ip, 1 mg/kg, 15 min after injection, one sample, estimated concentration, read-out: Serum concentration
[16] = male, Sprague-Dawley, serum, ip, 1 mg/kg, one sample, estimated concentration, read-out: Serum concentration
[17] = male, Sprague-Dawley, serum, ip, 1 mg/kg, 180 min after injection, one sample, estimated concentration, read-out: Serum concentration
[18] = male, Sprague-Dawley, kidney, ip, 1 mg/kg, 180 min after injection, one sample, estimated concentration, read-out: Kidney concentration
[19] = 48 h after injection, one sample, estimated concentration, 1 mg/kg

SMILES | Brain concentration [1, 3] [ng/g] | concentration at 15 min [1, 4] [ng/g] | concentration at 30 min [1, 5] [ng/g] | Kp at 15 min [1, 6] | Kp at 30 min [1, 6] | concentration at 15 min [1, 7] [ng/g] | concentration at 30 min [1, 8] [ng/g] | Kp at 15 min [1, 9] | Kp at 30 min [1, 9] | concentration at 15 min [1, 10] [ng/g] | concentration at 30 min [1, 11] [ng/g] | concentration at 180 min [1, 12] [ng/g] | Kp at 15 min [1, 13] | Kp at 30 min [1, 13] | Kp at 180 min [1, 14] | concentration at 15 min [1, 15] [ng/mL] | concentration at 30 min [1, 16] [ng/mL] | concentration at 180 min [1, 17] [ng/mL] | Liver concentration [1, 3] [ng/g] | concentration at 180 min [1, 18] [ng/g] | also measured
COC(=O)C(NC(=O)c1cn(CC2CCCCC2)c2ccccc12)C(C)C (stereo not drawn) [AMB-CHMICA] | 21.3 | 21 | 20.7 | 0.47 | 0.31 | 36.5 | 66 | 0.81 | 1 | 846 | 874 | < 5 | 18.8 | 13.3 | 1.18 | 45.1 | 65.9 | 3.93 | – | – | Liver concentration ([1]; 180 min after injection, one sample, estimated concentration, 1 mg/kg): 4.64 ng/g
COC(=O)C(NC(=O)c1nn(Cc2ccc(F)cc2)c2ccccc12)C(C)C (stereo not drawn) [AMB-FUBINACA] | 57.2 | 57 | 18.4 | 4.38 | 6.05 | 42.6 | 16.4 | 3.27 | 5.42 | 7 | 4.59 | – | 0.56 | 1.52 | – | 13 | 3.03 | – | 7.25 | 3.36 | Liver concentration ([1]; 180 min after injection, one sample, estimated concentration): no longer detected; Blood-brain barrier permeability compared by brain/serum concentration ratio ([1]; at measured time points, versus AMB-CHMICA, 1 mg/kg): higher permeability than AMB-CHMICA (up to ten times); also recorded: around ten-fold more permeable than AMB-CHMICA; concentration at 180 min ([1]; male, Sprague-Dawley, brain, ip, 1 mg/kg, 180 min after injection, one sample, estimated concentration, read-out: Brain concentration): 2.64 ng/g
CC(C)C(NC(=O)c1nn(Cc2ccc(F)cc2)c2ccccc12)C(=O)O (stereo not drawn) [O-demethyl AMB-FUBINACA] | – | – | 3.83 | – | 0.05 | 12.5 | 27.4 | 0.5 | 0.36 | 110 | 356 | 265 | 4.47 | 4.63 | 1.94 | 25 | 76.8 | 136 | 111 | 43.7 | Incubation time after which the O-demethyl metabolite was the major compound in incubation media [2]: 2 to 3 min; Serum concentration [1, 3]: 24.9 ng/mL; Urine concentration ([1]; 24 h (composite urine 360 min to 24 h)): 7.33 ng/mL; Liver concentration [1, 19]: 31.49 ng/g; Serum concentration [1, 19]: 5.72 ng/mL; Kp at 180 min ([1]; male, Sprague-Dawley, kidney/serum, ip, 180 min, read-out: Kidney/serum ratio, tissue (ng/g)/serum (ng/mL)): 0.32; concentration at 48 h ([1]; male, Sprague-Dawley, liver, ip, 1 mg/kg, 48 h after injection, one sample, estimated concentration, read-out: Liver concentration): 31 ng/g; concentration at 48 h ([1]; male, Sprague-Dawley, serum, ip, 1 mg/kg, 48 h after injection, one sample, estimated concentration, read-out: Serum concentration): 6 ng/mL; concentration at 180 min ([1]; male, Sprague-Dawley, urine, ip, 1 mg/kg, 180 min, read-out: Urine concentration): 5.78 ng/mL; concentration at 300 min ([1]; male, Sprague-Dawley, urine, ip, 1 mg/kg, 300 min): 1.13 ng/mL
